Like-named read-outs stand apart in the source and are kept apart here.
How the values were obtained:
[1] = molecular target: T1, hCA II (Homo sapiens, UniProt P00918); experiment: stopped-flow CO2 hydrase assay, hCA II; type: biochemical; conditions: incubation time of 6 h, mean of three assays, read-out: KI CA II
T1 construct: made in house
Method: (§1) The newly synthesised MPCs (3 and 5a–o) were assessed for their CA inhibition activity employing the stopped-flow CO2 hydrase assay[29] for constitutional hCA (I/II) isoforms and cancer-linked hCA (IX/XII) isoforms.
(§2) The CA inhibition activity for the herein reported MPC derivatives was evaluated against the hCA isoforms I, II, IX, and XII using stopped-flow CO2 hydrase test[7]^,[33–36] (see the Supplementary Material).
(§3) Carbonic anhydrase inhibition assay
(§4) The carbonic anhydrase catalyzed CO2 hydration actions for all coumarin-based […]
(§5) Photophysics stopped-flow. The enzymes are recombinant proteins prepared in our lab. Phenol red (at a concentration of 0.2 mM) has been used as indicator, working at […]
(§6) mM Na2SO4 (for maintaining constant the ionic strength), following the initial rates of the CA-catalyzed CO2 hydration reaction for a period of 10-100 s. The CO2 concentrations ranged from 1.7 to 17 mM for the determination of the kinetic parameters and inhibition constants. For each inhibitor at least six traces of the initial 5-10% of the reaction have been used for determining the initial velocity. The uncatalyzed rates were determined in the same manner and subtracted from the total observed rates. Stock solutions of inhibitor (0.1 mM) were prepared in distilled-deionized water and dilutions up to 0.01 nM were done thereafter with the assay buffer. Inhibitor and enzyme solutions were preincubated together for 6 hrs. at room temperature prior to assay, in order to allow for the formation of the E-I complex. The inhibition constants were obtained by non-linear least-squares methods using PRISM 3 and the Cheng-Prusoff equation, and represent the mean from at least three different

[2] = molecular target: T2, hCA IX (Homo sapiens, UniProt Q16790); experiment: stopped-flow CO2 hydrase assay, hCA IX; type: biochemical; conditions: for Selectivity index (SI) (KI off-target CA/KI target CA) Towards hCA IX: ratio of KI for hCA I and II relative to hCA IX; for Ki: stopped-flow, incubation time of 6 h, mean of three assays, read-out: KI CA IX; for fold decreased inhibitory activity towards hCA IX: relative to phenyl analogue 5a
T2 construct: made in house
Method: as §1, §2, §3, §4, §5, §6

[3] = molecular target: T3, hCA I (Homo sapiens, UniProt P00915); experiment: stopped-flow CO2 hydrase assay, hCA I; type: biochemical
T3 construct: made in house
T3 sequence (P00915 whole entry): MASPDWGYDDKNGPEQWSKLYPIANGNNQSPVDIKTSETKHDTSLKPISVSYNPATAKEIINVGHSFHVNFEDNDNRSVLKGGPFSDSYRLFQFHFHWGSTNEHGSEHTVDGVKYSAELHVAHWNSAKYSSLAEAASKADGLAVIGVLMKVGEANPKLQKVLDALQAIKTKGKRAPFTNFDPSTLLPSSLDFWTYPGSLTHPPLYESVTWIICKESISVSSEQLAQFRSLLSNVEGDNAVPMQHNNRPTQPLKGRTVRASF
Method: as §1, §2, §3, §4, §5, §6

[4] = molecular target: T4, hCA XII (Homo sapiens, UniProt O43570); experiment: stopped-flow CO2 hydrase assay, hCA XII; type: biochemical; conditions: for Selectivity index (SI) (KI off-target CA/KI target CA) Towards hCA XII: ratio of KI for hCA I and II relative to hCA XII; for Ki: stopped-flow, incubation time of 6 h, mean of three assays, read-out: KI CA XII
T4 construct: made in house
T4 sequence (O43570 25-354): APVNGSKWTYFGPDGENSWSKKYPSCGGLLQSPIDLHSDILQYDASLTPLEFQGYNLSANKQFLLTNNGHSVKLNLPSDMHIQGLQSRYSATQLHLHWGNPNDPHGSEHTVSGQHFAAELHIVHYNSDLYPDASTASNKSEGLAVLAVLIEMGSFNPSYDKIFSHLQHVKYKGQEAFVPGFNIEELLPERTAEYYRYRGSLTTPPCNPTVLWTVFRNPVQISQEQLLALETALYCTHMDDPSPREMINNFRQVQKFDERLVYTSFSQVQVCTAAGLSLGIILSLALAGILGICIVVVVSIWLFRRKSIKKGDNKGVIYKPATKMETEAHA
Method: as §1, §2, §3, §4, §5, §6

[5] = tested on: SNB-75; experiment: NCI single (10 µM) dose SRB screening, SNB-75; type: cell-based, human; conditions: 10 µM single dose, SNB-75, CNS cancer
Method: (§7) Following NCI protocol, sixteen MPCs were screened for their potential in vitro anticancer effects against human 59 cancer cell panels including prostate, leukaemia melanoma, colon, breast, CNS, renal, NSCLC, and ovarian cancers by National Cancer Institute (USA)[30].
(§8) The antiproliferative activities of MPC 3 and MPCs 5a–o were first evaluated in a 10 µM dose assay, with SRB assay used to determine cell survival and proliferation. […] The results of the cell growth inhibitory activities for MPCs 5g and 5l towards the different treated tumour cell lines were presented as GI% and presented in Table 3.
(§9) The anticancer test was conducted using the methods of the Drug Evaluation Branch, National Cancer Institute, Bethesda, MD, using 59 human tumour cell lines derived from nine human tissues. The GI50, TGI, and LC50 dose-response parameters were calculated for each medication.

[6] = tested on: LOX IMVI; experiment: NCI single (10 µM) dose SRB screening, LOX IMVI; type: cell-based, human; conditions: 10 µM single dose, Melanoma
Method: as §7, §8, §9

[7] = tested on: MCF7; experiment: NCI single (10 µM) dose SRB screening, MCF7; type: cell-based, human; conditions: 10 µM single dose, MCF7, Breast cancer
Method: as §7, §8, §9

[8] = tested on: MDA-MB-435; experiment: NCI single (10 µM) dose SRB screening, MDA-MB-435; type: cell-based, human; conditions: 10 µM single dose, MDA-MB-435, Melanoma
Method: as §7, §8, §9

[9] = stopped-flow, incubation time of 6 h, mean of three assays, read-out: KI CA I

CC(=O)c1ccc(-c2cc3ccccc3oc2=O)nc1C [Compound 3, 3-(5-acetyl-6-methylpyridin-2-yl)-2H-chromen-2-one]
Ki [1]: > 100 µM
Selectivity index (SI) (KI off-target CA/KI target CA) Towards hCA IX [2]: >105.26
Ki [2]: 0.95 µM
Ki [3, 9]: > 100 µM
Selectivity index (SI) (KI off-target CA/KI target CA) Towards hCA XII [4]: >147.06
Ki [4]: 0.68 µM

Cc1nc(-c2cc3ccccc3oc2=O)ccc1C(=O)/C=C/c1ccccc1 [Compound 5a, 3-(6-Methyl-5-[(2E)-3-phenylprop-2-enoyl]pyridin-2-yl)-2H-chromen-2-one]
Ki [1]: > 100 µM
Selectivity index (SI) (KI off-target CA/KI target CA) Towards hCA IX [2]: >66.67
Ki [2]: 1.5 µM
Ki [3, 9]: > 100 µM
Selectivity index (SI) (KI off-target CA/KI target CA) Towards hCA XII [4]: >19.61
Ki [4]: 5.1 µM

Cc1nc(-c2cc3ccccc3oc2=O)ccc1C(=O)/C=C/c1ccc(F)cc1 [Compound 5b, 3-(5-[(2E)-3-(4-Fluorophenyl)prop-2-enoyl]-6-methylpyridin-2-yl)-2H-chromen-2-one]
Ki [1]: > 100 µM
Selectivity index (SI) (KI off-target CA/KI target CA) Towards hCA IX [2]: >29.41
Ki [2]: 3.4 µM
GI % [5]: 39%
Ki [3, 9]: > 100 µM
GI % [6]: 46%
GI % [7]: 49%
Selectivity index (SI) (KI off-target CA/KI target CA) Towards hCA XII [4]: >37.04
Ki [4]: 2.7 µM

Cc1nc(-c2cc3ccccc3oc2=O)ccc1C(=O)/C=C/c1ccc(Cl)cc1 [Compound 5c, 3-(5-[(2E)-3-(4-Chlorophenyl)prop-2-enoyl]-6-methylpyridin-2-yl)-2H-chromen-2-one]
Ki [1]: > 100 µM
Selectivity index (SI) (KI off-target CA/KI target CA) Towards hCA IX [2]: >17.24
Ki [2]: 5.8 µM
melting point: 223 to 225 °C
Ki [3, 9]: > 100 µM
Selectivity index (SI) (KI off-target CA/KI target CA) Towards hCA XII [4]: >52.63
Ki [4]: 1.9 µM

Cc1ccc(/C=C/C(=O)c2ccc(-c3cc4ccccc4oc3=O)nc2C)cc1 [Compound 5d, 3-(6-Methyl-5-[(2E)-3-(4-methylphenyl)prop-2-enoyl]pyridin-2-yl)-2H-chromen-2-one]
Ki [1]: > 100 µM
Selectivity index (SI) (KI off-target CA/KI target CA) Towards hCA IX [2]: >23.25
Ki [2]: 4.3 µM
melting point: 206 to 208 °C
Ki [3, 9]: > 100 µM
Selectivity index (SI) (KI off-target CA/KI target CA) Towards hCA XII [4]: >12.19
Ki [4]: 8.2 µM

Cc1nc(-c2cc3ccccc3oc2=O)ccc1C(=O)/C=C/c1ccc([N+](=O)[O-])cc1 [Compound 5e, 3-(6-Methyl-5-[(2E)-3-(4-nitrophenyl)prop-2-enoyl]pyridin-2-yl)-2H-chromen-2-one]
Ki [1]: > 100 µM
Selectivity index (SI) (KI off-target CA/KI target CA) Towards hCA IX [2]: >6.10
Ki [2]: 16.4 µM
melting point: 202 to 204 °C
Ki [3, 9]: > 100 µM
Selectivity index (SI) (KI off-target CA/KI target CA) Towards hCA XII [4]: >9.17
Ki [4]: 10.9 µM

Cc1nc(-c2cc3ccccc3oc2=O)ccc1C(=O)/C=C/c1ccc(N(C)C)cc1 [Compound 5f, 3-(5-[(2E)-3-[4-(Dimethylamino)phenyl]prop-2-enoyl]-6-methylpyridin-2-yl)-2H-chromen-2-one]
Ki [1]: > 100 µM
Selectivity index (SI) (KI off-target CA/KI target CA) Towards hCA IX [2]: >11.76
Ki [2]: 8.5 µM
Ki [3, 9]: > 100 µM
Selectivity index (SI) (KI off-target CA/KI target CA) Towards hCA XII [4]: >14.92
Ki [4]: 6.7 µM
GI % [8]: 80%

COc1ccc(/C=C/C(=O)c2ccc(-c3cc4ccccc4oc3=O)nc2C)cc1 [Compound 5h, 3-(5-[(2E)-3-(4-Methoxyphenyl)prop-2-enoyl]-6-methylpyridin-2-yl)-2H-chromen-2-one]
Ki [1]: > 100 µM
Selectivity index (SI) (KI off-target CA/KI target CA) Towards hCA IX [2]: >9.34
Ki [2]: 10.7 µM
melting point: 174 to 175 °C
Ki [3, 9]: > 100 µM
Selectivity index (SI) (KI off-target CA/KI target CA) Towards hCA XII [4]: >35.71
Ki [4]: 2.8 µM

COc1cc(/C=C/C(=O)c2ccc(-c3cc4ccccc4oc3=O)nc2C)cc(OC)c1OC [Compound 5i, 3-(6-Methyl-5-[(2E)-3-(3,4,5-trimethoxyphenyl)prop-2-enoyl]pyridin-2-yl)-2H-chromen-2-one]
Ki [1]: > 100 µM
Selectivity index (SI) (KI off-target CA/KI target CA) Towards hCA IX [2]: >3.65
Ki [2]: 27.4 µM
melting point: 186 to 188 °C
Ki [3, 9]: > 100 µM
Selectivity index (SI) (KI off-target CA/KI target CA) Towards hCA XII [4]: >7.75
Ki [4]: 12.9 µM

Cc1nc(-c2cc3ccccc3oc2=O)ccc1C(=O)/C=C/c1ccc2c(c1)OCO2 [Compound 5j, 3-(5-[(2E)-3-(2H-1,3-Benzodioxol-5-yl)prop-2-enoyl]-6-methylpyridin-2-yl)-2H-chromen-2-one]
Ki [1]: > 100 µM
Selectivity index (SI) (KI off-target CA/KI target CA) Towards hCA IX [2]: >18.87
fold decreased inhibitory activity towards hCA IX [2]: about 3.5 fold
Ki [2]: 5.3 µM
melting point: 178 to 180 °C
Ki [3, 9]: > 100 µM
Selectivity index (SI) (KI off-target CA/KI target CA) Towards hCA XII [4]: >14.71
Ki [4]: 6.8 µM

Cc1nc(-c2cc3ccccc3oc2=O)ccc1C(=O)/C=C/c1cccc2ccccc12 [Compound 5k, 3-(6-Methyl-5-[(2E)-3-(naphthalen-1-yl)prop-2-enoyl]pyridin-2-yl)-2H-chromen-2-one]
Ki [1]: > 100 µM
Selectivity index (SI) (KI off-target CA/KI target CA) Towards hCA IX [2]: >2.71
fold decreased inhibitory activity towards hCA IX [2]: ~23 fold
Ki [2]: 36.9 µM
melting point: 204 to 206 °C
Ki [3, 9]: > 100 µM
Selectivity index (SI) (KI off-target CA/KI target CA) Towards hCA XII [4]: >4.67
Ki [4]: 21.4 µM

Cc1nc(-c2cc3ccccc3oc2=O)ccc1C(=O)/C=C/c1cccs1 [Compound 5m, 3-(6-Methyl-5-[(2E)-3-(thiophen-2-yl)prop-2-enoyl]pyridin-2-yl)-2H-chromen-2-one]
Ki [1]: > 100 µM
Ki [3]: > 100 µM

Cc1ccc(/C=C/C(=O)c2ccc(-c3cc4ccccc4oc3=O)nc2C)o1 [Compound 5n, 3-(6-Methyl-5-[(2E)-3–(5-methylfuran-2-yl)prop-2-enoyl]pyridin-2-yl)-2H-chromen-2-one]
Ki [1]: > 100 µM
Selectivity index (SI) (KI off-target CA/KI target CA) Towards hCA IX [2]: >66.67
Ki [2]: 1.5 µM
Ki [3, 9]: > 100 µM
GI % [6]: 39%
GI % [7]: 40%
Selectivity index (SI) (KI off-target CA/KI target CA) Towards hCA XII [4]: >52.63
Ki [4]: 1.9 µM

Cc1nn(-c2ccccc2)cc1/C=C/C(=O)c1ccc(-c2cc3ccccc3oc2=O)nc1C [Compound 5o, 3-(6-Methyl-5-[(2E)-3–(3-methyl-1-phenyl-1H-pyrazol-4-yl)prop-2-enoyl]pyridin-2-yl)-2H-chromen-2-one]
Ki [1]: > 100 µM
Selectivity index (SI) (KI off-target CA/KI target CA) Towards hCA IX [2]: >5.15
Ki [2]: 19.4 µM
melting point: 204 to 206 °C
Ki [3, 9]: > 100 µM
Selectivity index (SI) (KI off-target CA/KI target CA) Towards hCA XII [4]: >5.62
Ki [4]: 17.8 µM
